Test results reported in publication PMC12492669, “Malic enzyme-based system for transhydrogenation between nicotinamide cofactors” (Synthetic and Systems Biotechnology, 2025).

Biological target: T1, ME (NAD-dependent malic enzyme); ME∗ (ME mutant with L310R/Q401C) (Escherichia coli, UniProt P26616)
T1 construct: gene maeA; recombinant from E. coli BL21(DE3), pET24b-ME, Ni-NTA purified; 64 kDa
Assay: malate oxidative decarboxylation, absorbance at […] nm
Assay type: biochemical
Details: 0.5 mM NCD, 5 mM malate, 2 mM MgCl2, 50 mM HEPES pH 7.5; weak

T1 sequence (P26616 whole entry, stated change not applied): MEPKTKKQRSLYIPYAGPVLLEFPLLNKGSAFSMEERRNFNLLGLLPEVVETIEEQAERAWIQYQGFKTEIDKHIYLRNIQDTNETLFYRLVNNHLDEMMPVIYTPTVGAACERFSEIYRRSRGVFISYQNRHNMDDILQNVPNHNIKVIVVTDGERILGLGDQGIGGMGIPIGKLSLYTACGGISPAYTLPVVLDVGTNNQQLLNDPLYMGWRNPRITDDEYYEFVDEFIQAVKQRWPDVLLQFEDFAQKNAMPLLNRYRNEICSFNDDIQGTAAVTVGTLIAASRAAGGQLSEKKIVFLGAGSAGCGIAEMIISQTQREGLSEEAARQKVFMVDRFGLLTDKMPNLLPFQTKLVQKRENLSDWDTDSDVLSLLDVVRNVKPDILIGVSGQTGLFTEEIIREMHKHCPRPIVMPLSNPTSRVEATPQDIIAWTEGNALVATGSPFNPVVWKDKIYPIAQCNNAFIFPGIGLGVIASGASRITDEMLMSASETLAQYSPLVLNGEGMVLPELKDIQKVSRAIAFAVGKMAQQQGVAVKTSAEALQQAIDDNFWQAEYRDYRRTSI

In the case of `NC(=O)c1ccc[n+]([C@@H]2O[C@H](COP(=O)([O-])OP(=O)(O)OC[C@H]3O[C@@H](n4ccc(N)nc4=O)[C@H](O)[C@@H]3O)[C@@H](O)[C@H]2O)c1` [NCD], the “malate oxidative decarboxylation, absorbance at 340 nm” value is reported as “ME exhibited the highest activity towards NAD and weak activity towards NCD and NADP”.
